The source of these data is ChEMBL document CHEMBL3400065, “N10,N11-di-alkylamine indolo[3,2-b]quinolines as hemozoin inhibitors: design, synthesis and antiplasmodial activity” (Bioorg Med Chem, 2015).

SMILES strings stand for the structures.

A short description of series [1]: n-octanol-phosphate buffer partition coefficient, log D in CH3CN-MeOH-phosphate buffer at pH 7.4 by HPLC-UV analysis. It is filed as physicochemical.
A short description of series [2]: n-octanol-phosphate buffer partition coefficient, log D in CH3CN-MeOH-phosphate buffer at pH 5.2 by HPLC-UV analysis. The class given is physicochemical.
The nature of series [3]: Cytotoxicity against human HepG2A16 cells by MTT assay. The class given is cell-based. On the technique in general: Formazan colour is commonly taken as a measure of viable cells.
A short description of series [4]: Inhibition of beta-hematin formation after 5 to 6 hrs by pyridine-ferrichrome detergent-mediated assay. It is filed as physicochemical.
For series [5], the system named is Plasmodium falciparum. The series is described as follows: Antimalarial activity against ring stage Plasmodium falciparum W2 infected with human red blood cells incubated for 48 hrs by flow cytometry. It is filed as functional, organism-based. As to conditions: W2, 48 h. (A flow cytometer gives signals particle by particle.)
Series [6] can be described thus: Selectivity index, ratio of IC50 for human HepG2A16 cells to IC50 for ring stage Plasmodium falciparum W2. The class given is toxicity. The note with it: read-out: Ratio IC50.
Series [7] deals with Plasmodium falciparum. The series is described as follows: Antimalarial activity against ring stage Plasmodium falciparum 3D7 infected with human red blood cells incubated for 48 hrs by SYBR Green method. It is filed as functional, organism-based. The note with it: 3D7, 48 h.
The subject of series [8] is Plasmodium falciparum. The series is described as follows: Antimalarial activity against ring stage Plasmodium falciparum Dd2 infected with human red blood cells incubated for 48 hrs by SYBR Green method. As to conditions: Dd2, 48 h. It is filed as functional.
The subject of series [9] is Plasmodium falciparum. The series is described as follows: Ratio of chloroquine IC50 to compound IC50 for ring stage Plasmodium falciparum W2 infected with human red blood cells incubated for 48 hrs by flow cytometry. It is filed as functional.
The test system of series [10] is Plasmodium falciparum. The series is described as follows: Resistance index, ratio of IC50 for ring stage Plasmodium falciparum W2 to IC50 for ring stage Plasmodium falciparum 3D7. It is filed as functional.
In series [11] the test system is Plasmodium falciparum. The series is described as follows: Resistance index, ratio of IC50 for ring stage Plasmodium falciparum Dd2 to IC50 for ring stage Plasmodium falciparum 3D7. It is filed as functional.

On to `CCN(CC)CCCNc1c2ccc(Cl)cc2nc2c3ccccc3n(CCN3CCCC3)c12`, for which the logD (as a rule, the decadic logarithm of the distribution of all forms, ionised or not, between an organic phase and buffer at a given pH) in series [1] was 1.48; in series [2], -0.03. Besides, the IC50 (usually the midpoint of a concentration-inhibition curve) in [3] is 4500 nM; in [4], 21900 nM; with Plasmodium falciparum [5], 87 nM; in the series with Plasmodium falciparum [7], 480 nM; in the series with Plasmodium falciparum [8], 455 nM. The selectivity ratio in series [6] came to 52.

`Clc1ccc2c(NCCCN3CCOCC3)c3c(nc2c1)c1ccccc1n3CCN1CCCC1` had a logD in [2] of 0.69. Further, the IC50 was 8600 nM in series [3]; 32900 nM in [4]; 90 nM with Plasmodium falciparum [5]; 469 nM with Plasmodium falciparum [7]; 678 nM with Plasmodium falciparum [8]. Besides, the selectivity ratio in series [6] worked out at 96.

Take `CCN(CC)CCCC(C)Nc1ccnc2cc(Cl)ccc12` (centres undefined) [CHLOROQUINE]: the IC50 in series [4] is 28200 nM.

The compound `CCN(CC)CCCNc1c2ccc(Cl)cc2nc2c3cc(Cl)ccc3n(CCN3CCOCC3)c12` gave a logD in series [2] of 1.5. Moreover, the 50% inhibitory concentration (IC50) in series [3] is 4700 nM; in [4] it was 21100 nM; in the series on Plasmodium falciparum [5], 95 nM; in the series on Plasmodium falciparum [7] it was 199 nM; in the series with Plasmodium falciparum [8], 311 nM. Moreover, in [6], the selectivity ratio was 49.

Regarding `Clc1ccc2c(NCCCN3CCCCC3)c3c(nc2c1)c1cc(Cl)ccc1n3CCN1CCCC1`, the logD was determined as 3.1 in [1] and 0.78 in [2]. Besides, the IC50 in [3] turned out to be 5700 nM; in series [4], 13500 nM; in the series on Plasmodium falciparum [5], 97 nM; with Plasmodium falciparum [7], 660 nM; with Plasmodium falciparum [8], 638 nM. For the same compound, the selectivity ratio in [6] was determined as 59.

As to `CCN(CC)CCCC(C)Nc1c2ccc(Cl)cc2nc2c3ccccc3n(CCN3CCCC3)c12` (centres undefined), the results for the logD in series [1] and in series [2] were 0.6 and 0.1, respectively. The IC50 in series [3] is 2500 nM; in series [4], 7900 nM; in the series on Plasmodium falciparum [5], 20 nM; in the series on Plasmodium falciparum [7], 245 nM; in the series with Plasmodium falciparum [8] it was 314 nM. Moreover, the “Ratio IC50” value in the series on Plasmodium falciparum [9] is recorded as 10. For the same compound, the selectivity ratio in series [6] came to 125.

Consider `CCN(CC)CCOc1cc(Cl)cc2nc3c4cc(Cl)ccc4n(CCN(CC)CC)c3cc12`, for which the “Ratio IC50” value in the series on Plasmodium falciparum [10] and in the series on Plasmodium falciparum [11] was 0.3 each time. In series [3], this compound gave an IC50 of 5300 nM. In [6], the selectivity ratio came out at 212.

Regarding `CCN(CC)CCCNc1c2ccc(Cl)cc2nc2c3cc(Cl)ccc3n(CCN3CCCC3)c12`, the logD in series [1] was 3.23; in series [2], 0.54. For the same compound, the IC50 in series [3] was found to be 6000 nM; in series [4], 20400 nM; with Plasmodium falciparum [5], 77 nM; in the series with Plasmodium falciparum [7], 392 nM; with Plasmodium falciparum [8] it was 481 nM. For the same compound, the selectivity ratio in series [6] was found to be 78.

As to `Clc1ccc2c(NCCN3CCCC3)c3c(nc2c1)c1ccccc1n3CCN1CCCC1`, the values for the logD in series [1] and in [2] were 2.7 and 0.34, respectively. Besides, the IC50 in [3] came out at 4600 nM; in [4], 79000 nM; in the series on Plasmodium falciparum [5], 99 nM; with Plasmodium falciparum [7], 468 nM; in the series with Plasmodium falciparum [8] it was 631 nM. The selectivity ratio in series [6] stood at 46.

`CCN(CC)CCNc1c2ccc(Cl)cc2nc2c3cc(Cl)ccc3n(CCN3CCCC3)c12`: the logD in series [2] is 1. The half-inhibitory concentration (IC50) in series [3] was 7500 nM; in [4], 24800 nM; with Plasmodium falciparum [5] it was 73 nM; with Plasmodium falciparum [7], 245 nM; in the series with Plasmodium falciparum [8], 215 nM. In addition, the selectivity ratio in series [6] came out at 103.

On to `CCN(CC)CCNc1c2ccc(Cl)cc2nc2c3ccccc3n(CCN3CCCC3)c12`, for which the logD in series [1] is 3.2; in [2], 0.05. For the same compound, the IC50 in [3] stood at 6400 nM; in [4], 98200 nM; in the series on Plasmodium falciparum [5] it was 158 nM; with Plasmodium falciparum [7], 656 nM; with Plasmodium falciparum [8] it was 724 nM. Moreover, the selectivity ratio in series [6] was 40.

In the case of `Clc1ccc2c(NCCN3CCCC3)c3c(nc2c1)c1cc(Cl)ccc1n3CCN1CCCC1`, the logD in series [1] stood at 3; in [2], 1.05. Moreover, the IC50 in series [3] is 8700 nM; in [4] it was 23400 nM; with Plasmodium falciparum [5] it was 124 nM; with Plasmodium falciparum [7], 375 nM; in the series with Plasmodium falciparum [8], 452 nM. Moreover, the selectivity ratio in series [6] was determined as 70.

For the compound `CCN(CC)CCCC(C)Nc1c2ccc(Cl)cc2nc2c3cc(Cl)ccc3n(CCN3CCCC3)c12` (centres undefined), in series [2], the logD is 0.26. Also, the IC50 in [3] is 6500 nM; in series [4], 10800 nM; with Plasmodium falciparum [5], 126 nM; with Plasmodium falciparum [7], 456 nM; with Plasmodium falciparum [8] it was 706 nM. Further, the selectivity ratio in series [6] came out at 52.

`Clc1ccc2c(NCCCN3CCOCC3)c3c(nc2c1)c1cc(Cl)ccc1n3CCN1CCCC1` yielded a logD in series [2] of 1.5. Besides, the IC50 in series [3] turned out to be 11900 nM; in series [4] it was 17400 nM; in the series with Plasmodium falciparum [5] it was 292 nM; in the series with Plasmodium falciparum [7], 407 nM; with Plasmodium falciparum [8], 572 nM. The selectivity ratio in [6] is 41.

`CCN(CC)CCCNc1c2ccc(Cl)cc2nc2c3ccccc3n(CCN3CCOCC3)c12` registered a logD in series [2] of 0.72. In addition, the IC50 is 4600 nM in series [3]; 26900 nM in [4]; 113 nM in the series with Plasmodium falciparum [5]; 320 nM in the series on Plasmodium falciparum [7]; 453 nM with Plasmodium falciparum [8]. For the same compound, the selectivity ratio in series [6] is 41.

In the case of `CCN(CC)CCNc1c2ccc(Cl)cc2nc2c3cc(Cl)ccc3n(CCN3CCOCC3)c12`, in series [2], the logD was determined as 1.79. For the same compound, the IC50 in [3] was determined as 16600 nM; in series [4] it was 14300 nM; in the series with Plasmodium falciparum [5], 165 nM; in the series with Plasmodium falciparum [7], 513 nM; in the series on Plasmodium falciparum [8], 683 nM. Besides, the selectivity ratio in series [6] is 103.

On to `Clc1ccc2c(NCCCN3CCCCC3)c3c(nc2c1)c1ccccc1n3CCN1CCCC1`, for which the results for the logD in series [1] and in series [2] were 2.8 and -0.01, respectively. In addition, the IC50 in series [3] stood at 4300 nM; in [4], 42900 nM; in the series on Plasmodium falciparum [5], 117 nM; with Plasmodium falciparum [7], 535 nM; in the series on Plasmodium falciparum [8], 658 nM. The selectivity ratio in series [6] was 37.
